Results: US20240189287A1, “PERIPHERALLY RESTRICTED CB1 RECEPTOR BLOCKERS AND USES THEREOF” (BIONANOSIM (BNS) LTD, priority 2021, published 2024)
Entries after “also recorded” stand apart in the source; their conditions may differ. Read-outs that look alike come from different tables or passages of the source.

Assays:
[1] = test system: DIO (Diet-Induced-Obese) mice; assay: In vivo efficacy study in Diet Induced Obesity (DIO) model; parameters: species or system C57BL/6J mice
Description: In vivo efficacy study in Diet Induced Obesity (DIO) model: Male C57BL/6J mice were kept on a high fat diet for 24 weeks. […] Thereafter, metabolic assessment was performed in order to evaluate the efficacy of the treatment. The efficacy was evaluated by measurements of the following parameters: • 1. Body weight and food intake, • 2. Total energy expenditure (TEE) and respiratory quotient (RQ). • 3. Fat and Carbohydrate oxidation (FO and CHO, respectively), • 4. Total ambulation, • 5. Glucose homeostasis, • 6. Hepatic Steatosis and Liver Injury, • 7. Lipid profile, • 8. Kidney function.
Animals: The experimental protocol used is approved by the Institutional Animal Care and Use Committee of the Hebrew University. Male, 25 weeks old, C57BL/6J mice were purchased from Jackson laboratories. Mice were maintained under a 12-h light/dark cycle and fed ad libitum. To maintain diet-induced obesity, C57BL/6J mice were fed with high-fat diet (HFD) (60% of calories from fat, 20% from protein, and 20% from carbohydrates; Research Diet, D12492) for overall 30 weeks.
[…] Body weight and food intake were monitored daily. Total body fat and lean masses were determined by EchoMRI-100H™ (Echo Medical Systems LLC, Houston, TX, USA). 24 h urine was collected 2-4 days before euthanasia using mouse metabolic cages (CCS2000 Chiller System, Hatteras Instruments, NC, USA). At the end of the observation period, mice were euthanized by a cervical dislocation under anesthesia, the kidneys, liver, brain, spleen, fat, and pancreas were removed, and samples were fixed in buffered 4% formalin (for histopathological analysis) or snap frozen (for biochemistry analysis). Trunk blood was collected for determining the biochemical parameters.
Multi-parameter metabolic assessment: Metabolic profile of the mice was assessed by using the Promethion High-Definition Behavioral Phenotyping System
(Sable Instruments, Inc., Las Vegas, NV, USA). Data acquisition and instrument control were performed using MetaScreen software version 2.2.18.0, and the obtained raw data were processed using ExpeData version 1.8.4 using an analysis script detailing all aspects of data transformation. Mice with free access to food and water were subjected to a standard 12 hr light/12 hr dark cycle, which consisted of 48 hr acclimation period followed by 24 hr of sampling. Respiratory gases were measured by using the GA-3 gas analyzer (Sable Systems, Inc., Las Vegas, NV, USA) using a pull-mode, negative-pressure system. Air flow was measured and controlled by FR-8 (Sable Systems, Inc., Las Vegas, NV, USA), with a set flow rate of 2000 mL/min. Water vapor was continuously measured and its dilution effect on O2 and CO2 was mathematically compensated. Effective mass was calculated by [body mass]0.75. Fat oxidation (FO) and carbohydrate oxidation (CHO) were calculated as FO=1.69×VO2−1.69×VCO2 and CHO=4.57×VCO2−3.23×VO2 and expressed as g/d/kg^eff.Mass.
Locomotor activity: Locomotor activity was quantified by the number of disruptions of infrared XYZ beam arrays with a beam spacing of 0.25 cm in the Promethion High-Definition Behavioral Phenotyping System (Sable Instruments, Inc., Las Vegas, NV, USA).
Glucose tolerance (ipGTT) test and insulin sensitivity tests (ipIST): Mice that fasted overnight were injected with glucose (1.5 g/kg, IP), followed by a tail blood collection at 0, 15, 30, 45, 60, 90, 120 min. Blood glucose levels were determined using the Elite glucometer (Bayer, Pittsburgh, PA). Two days later, mice were fasted for 6 hr before receiving insulin (0.75 U/kg, IP; Eli Lilly, DC, USA or Actrapid® vial, novo nordisk A/S, Denmark), and blood glucose levels were determined at the same intervals.
Creatinine clearance was calculated using urine and serum creatinine levels (CCr mL/h=Urine creatinine mg/dL×Urine volume/Serum creatinine mg/dL×24 hr). Fasting blood glucose was measured using the Elite glucometer (Bayer, Pittsburgh, PA). […]

CYP3A4 = CYP3A4 (Homo sapiens (Human), UniProt P08684); assay: CYP inhibition in human liver microsomes; type: in vitro ADME; details: for IC50: fifth value column, read-out: IC50 (μM) CYP 3A4
Sequence of CYP3A4 (P08684 whole entry): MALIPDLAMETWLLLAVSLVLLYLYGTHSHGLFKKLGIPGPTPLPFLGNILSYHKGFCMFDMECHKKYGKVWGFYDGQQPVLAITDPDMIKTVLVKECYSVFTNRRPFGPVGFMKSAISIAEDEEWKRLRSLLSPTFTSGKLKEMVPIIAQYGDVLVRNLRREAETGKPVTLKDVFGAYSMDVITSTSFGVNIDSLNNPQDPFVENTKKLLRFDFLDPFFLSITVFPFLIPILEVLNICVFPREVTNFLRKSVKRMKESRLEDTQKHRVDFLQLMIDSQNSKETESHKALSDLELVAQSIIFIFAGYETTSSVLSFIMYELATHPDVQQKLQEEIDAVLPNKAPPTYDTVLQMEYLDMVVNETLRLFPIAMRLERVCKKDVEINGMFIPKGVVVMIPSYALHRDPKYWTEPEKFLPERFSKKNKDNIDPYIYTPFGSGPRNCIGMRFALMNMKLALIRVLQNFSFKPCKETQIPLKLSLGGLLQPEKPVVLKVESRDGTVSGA
Description: (§1) To evaluate the in vitro CYP inhibition of BNS808 and BNS822, the compounds were tested in human liver microsomes that are rich in drug metabolizing enzymes, including CYPs 1A2, 2C9, 2C19, 2D6, 3A4.

CYP 2D6 = CYP 2D6 (Homo sapiens (Human), UniProt P10635); assay: CYP inhibition in human liver microsomes; type: in vitro ADME
Sequence of CYP 2D6 (P10635 whole entry): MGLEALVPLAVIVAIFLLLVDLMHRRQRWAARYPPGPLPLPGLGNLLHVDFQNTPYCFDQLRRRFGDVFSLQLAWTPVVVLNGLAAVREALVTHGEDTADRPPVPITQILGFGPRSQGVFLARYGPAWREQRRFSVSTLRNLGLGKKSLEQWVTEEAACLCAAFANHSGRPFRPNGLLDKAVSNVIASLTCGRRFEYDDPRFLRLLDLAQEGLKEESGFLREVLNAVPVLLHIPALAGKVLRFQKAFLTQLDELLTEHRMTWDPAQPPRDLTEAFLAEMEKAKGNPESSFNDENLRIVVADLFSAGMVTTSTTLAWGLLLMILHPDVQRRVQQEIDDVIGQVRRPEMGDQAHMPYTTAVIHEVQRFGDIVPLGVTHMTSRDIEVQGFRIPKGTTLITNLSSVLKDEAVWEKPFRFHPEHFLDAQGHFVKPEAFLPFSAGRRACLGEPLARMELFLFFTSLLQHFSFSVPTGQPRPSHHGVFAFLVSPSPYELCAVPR
Description: as §1

CYP2C19 = CYP2C19 (Homo sapiens (Human), UniProt P33261); assay: CYP inhibition in human liver microsomes; type: in vitro ADME
Sequence of CYP2C19 (P33261 whole entry): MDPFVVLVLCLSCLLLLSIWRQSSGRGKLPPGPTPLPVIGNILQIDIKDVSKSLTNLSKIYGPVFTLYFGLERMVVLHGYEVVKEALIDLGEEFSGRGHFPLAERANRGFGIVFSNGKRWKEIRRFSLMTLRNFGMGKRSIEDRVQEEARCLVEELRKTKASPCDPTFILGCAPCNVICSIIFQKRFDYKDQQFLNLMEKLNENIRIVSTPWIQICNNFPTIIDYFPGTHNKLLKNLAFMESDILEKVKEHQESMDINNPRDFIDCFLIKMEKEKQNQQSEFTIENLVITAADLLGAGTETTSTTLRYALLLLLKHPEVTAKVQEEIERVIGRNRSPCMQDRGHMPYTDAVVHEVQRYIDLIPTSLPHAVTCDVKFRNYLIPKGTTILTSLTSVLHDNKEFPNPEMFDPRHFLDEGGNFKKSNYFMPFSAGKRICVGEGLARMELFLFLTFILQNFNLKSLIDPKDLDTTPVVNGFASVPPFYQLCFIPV
Description: as §1

CYP2C9 = CYP2C9 (Homo sapiens (Human), UniProt P11712); assay: CYP inhibition in human liver microsomes; type: in vitro ADME
Sequence of CYP2C9 (P11712 whole entry): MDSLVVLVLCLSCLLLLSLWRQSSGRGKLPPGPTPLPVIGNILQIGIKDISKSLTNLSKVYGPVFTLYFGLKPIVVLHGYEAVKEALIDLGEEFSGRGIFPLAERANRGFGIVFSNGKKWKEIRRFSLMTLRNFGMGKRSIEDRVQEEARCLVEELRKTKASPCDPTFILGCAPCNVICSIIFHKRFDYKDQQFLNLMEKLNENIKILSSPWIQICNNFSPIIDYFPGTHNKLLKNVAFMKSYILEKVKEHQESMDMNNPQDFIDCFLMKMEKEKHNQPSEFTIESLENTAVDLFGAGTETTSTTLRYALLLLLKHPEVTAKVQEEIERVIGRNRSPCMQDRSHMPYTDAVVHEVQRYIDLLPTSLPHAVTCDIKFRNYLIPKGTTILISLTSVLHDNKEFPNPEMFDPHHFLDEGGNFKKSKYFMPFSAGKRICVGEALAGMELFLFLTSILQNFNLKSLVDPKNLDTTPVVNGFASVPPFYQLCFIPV
Description: as §1

CYP 1A2 = CYP 1A2 (Homo sapiens (Human), UniProt P05177); assay: CYP inhibition in human liver microsomes; type: in vitro ADME
Sequence of CYP 1A2 (P05177 whole entry): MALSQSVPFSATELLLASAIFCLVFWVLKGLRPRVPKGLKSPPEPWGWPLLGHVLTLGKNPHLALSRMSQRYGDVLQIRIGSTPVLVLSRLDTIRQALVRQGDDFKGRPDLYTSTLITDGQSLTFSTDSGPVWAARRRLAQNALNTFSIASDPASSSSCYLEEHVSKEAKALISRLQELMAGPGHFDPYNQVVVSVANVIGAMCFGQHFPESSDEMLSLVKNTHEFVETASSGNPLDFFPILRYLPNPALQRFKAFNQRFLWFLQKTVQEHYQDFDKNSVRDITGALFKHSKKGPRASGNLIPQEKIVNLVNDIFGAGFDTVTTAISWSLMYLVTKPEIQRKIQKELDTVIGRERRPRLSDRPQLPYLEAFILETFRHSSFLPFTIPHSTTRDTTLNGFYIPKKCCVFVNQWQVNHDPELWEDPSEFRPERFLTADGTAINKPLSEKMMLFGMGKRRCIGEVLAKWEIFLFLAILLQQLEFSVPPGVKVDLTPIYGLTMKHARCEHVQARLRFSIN
Description: as §1

P-gp (MDR1, ABCB1) = assay: MDR1-MDCK II cell permeation assay (bi-directional permeability, P-gp efflux); type: in vitro ADME; details: dog, MDCK-MDR1, pH 7.4
Description: (§2) Test and reference compounds were diluted with transport buffer (HBSS with 10 mM Hepes, pH 7.4) from stock solution to a concentration of 2 μM (DMSO<1%) and applied to the apical or basolateral side of the cell monolayer. Permeation of the test compounds from A to B direction or B to A direction was determined in duplicate with/without P-gp inhibitor (GF120918, 10 μM). […] The plate was incubated for 2.5 hours in CO2 incubator at 37±1° C., with 5% CO2 at saturated humidity without shaking. In addition, the efflux ratio of each compound was also determined. Test and reference compounds were quantified by LC-MS/MS analysis based on the peak area ratio of analyte/IS.
(§3) The in vitro bi-directional permeability across MDR1-MDCKII cells including P-glycoprotein (Pgp, ABCB1) efflux in the presence and absence of a P-gp inhibitor is an indicator as to the tendency of an orally administered compound to penetrate the brain.

MDR1-MDCKII cells = assay: as above; type: in vitro ADME
Description: as §2, §3

hERG potassium channels = hERG potassium channels (Homo sapiens (Human), UniProt Q12809); assay: hERG assay, automated patch clamp (SyncroPatch 384PE); type: cell-based; details: for potential for cardiotoxicity (QT prolongation): acceptance criteria IC50>100* Ki; for IC50: whole cell hERG currents
Sequence of hERG potassium channels (Q12809 whole entry): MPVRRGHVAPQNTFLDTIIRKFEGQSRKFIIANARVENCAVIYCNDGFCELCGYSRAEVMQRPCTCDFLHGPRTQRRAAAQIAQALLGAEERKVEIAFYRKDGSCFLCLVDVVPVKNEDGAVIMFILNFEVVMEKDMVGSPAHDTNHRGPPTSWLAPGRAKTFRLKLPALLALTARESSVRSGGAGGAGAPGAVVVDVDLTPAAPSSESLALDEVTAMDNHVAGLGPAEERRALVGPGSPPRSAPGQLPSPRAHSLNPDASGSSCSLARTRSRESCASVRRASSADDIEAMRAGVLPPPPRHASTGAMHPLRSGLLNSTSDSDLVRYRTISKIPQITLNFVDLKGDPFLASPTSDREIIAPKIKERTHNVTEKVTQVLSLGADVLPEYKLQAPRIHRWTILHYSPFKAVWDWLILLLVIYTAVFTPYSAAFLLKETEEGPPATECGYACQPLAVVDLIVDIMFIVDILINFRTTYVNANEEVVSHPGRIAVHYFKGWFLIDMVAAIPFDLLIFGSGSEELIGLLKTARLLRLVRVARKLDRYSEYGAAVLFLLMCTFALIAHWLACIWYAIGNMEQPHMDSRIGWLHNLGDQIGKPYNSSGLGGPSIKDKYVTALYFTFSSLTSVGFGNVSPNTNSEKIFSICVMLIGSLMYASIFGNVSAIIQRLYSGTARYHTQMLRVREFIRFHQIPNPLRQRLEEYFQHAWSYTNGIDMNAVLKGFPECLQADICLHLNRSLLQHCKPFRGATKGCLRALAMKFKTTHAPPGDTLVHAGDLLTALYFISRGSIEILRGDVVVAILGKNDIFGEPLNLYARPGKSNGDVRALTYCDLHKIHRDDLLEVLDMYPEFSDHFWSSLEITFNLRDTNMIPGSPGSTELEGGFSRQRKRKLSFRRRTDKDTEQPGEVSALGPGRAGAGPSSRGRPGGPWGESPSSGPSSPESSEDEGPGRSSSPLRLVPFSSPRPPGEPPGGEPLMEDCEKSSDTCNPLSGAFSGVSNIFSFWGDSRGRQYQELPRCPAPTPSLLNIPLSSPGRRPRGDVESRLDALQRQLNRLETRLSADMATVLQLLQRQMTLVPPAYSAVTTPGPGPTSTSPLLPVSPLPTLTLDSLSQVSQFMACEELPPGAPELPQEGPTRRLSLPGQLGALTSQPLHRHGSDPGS

O=S(=O)(NC1CCCOc2c1nn(-c1ccccc1Cl)c2-c1ccc(Cl)cc1)c1ccc(Cl)cc1 (stereo not drawn) [BNS808, 4-chloro-N-[2-(2-chlorophenyl)-3-(4-chlorophenyl)-5,6,7,8-tetrahydrooxepino[3,2-c]pyrazol-8-yl]benzenesulfonamide]
reduction of the body weight ([1]; 1 mg/kg daily PO, DIO mice on HFD, after 24 days): ~15%
ambulatory activity ([1]; 1 mg/kg/day continued PO, DIO mice): did not affect
inhibitor grade, CYP3A4(M) (CYP3A4): moderate inhibitor
IC50 (CYP3A4): 2.99 µM
IC50 (CYP 2D6): > 50 µM
IC50 (CYP2C19): 18 µM
inhibitor grade, CYP2C19 (CYP2C19; human liver microsomes): weak-moderate inhibitor
IC50 (CYP2C9): 8.33 µM
inhibitor grade, CYP2C9 (CYP2C9; human liver microsomes): weak-moderate inhibitor
IC50 (CYP 1A2): > 50 µM
efflux ratio at 2.5 h, 2 μM (P-gp (MDR1, ABCB1); efflux ratio in the presence of P-gp inhibitor GF120918, read-out: MDR1 B:A/A:B (+P-gp inhibitor)): 1.88
Rank Papp (MDR1-MDCKII cells; MDCK-MDR1): Low
MDR1 B:A/A:B (MDR1-MDCKII cells; efflux ratio, without P-gp inhibitor): 3.95
Hill slope (hERG potassium channels): 0.89
potential for cardiotoxicity (QT prolongation) (hERG potassium channels): low
IC50 (hERG potassium channels): 5.39 µM

Cc1ccc(C)c(OCCCC(C)(C)C(=O)NC2CCCOc3c2nn(-c2ccccc2Cl)c3-c2ccc(Cl)cc2)c1 (stereo not drawn) [BNS822, N-[2-(2-chlorophenyl)-3-(4-chlorophenyl)-5,6,7,8-tetrahydrooxepino[3,2-c]pyrazol-8-yl]-5-(2,5-dimethylphenoxy)-2,2-dimethyl-pentanamide]
weight loss ([1]; 20 mg/kg continued administration, DIO mice): 20%
body weight ([1]; 20 mg/kg/day PO, DIO mice): significantly reduced
food intake ([1]; 20 mg/kg/day PO, DIO mice): significant decrease
circulating fed insulin (plasma) levels ([1]; 20 mg/kg/day PO, DIO/HFD mice): significantly lower; also recorded: significant reductions
glucose levels in fed and fasting conditions ([1]; 20 mg/kg/day PO, DIO/HFD mice): no change; also recorded: no significant changes
glucose tolerance (GTT, AUC) ([1]; 20 mg/kg/day PO, DIO/HFD mice): improved; also recorded: significant reductions
insulin sensitivity (ITT) ([1]; 20 mg/kg/day PO, DIO/HFD mice): no improvement; also recorded: no significant changes
ALT levels ([1]; 20 mg/kg/day PO, HFD mice): Significant reductions
fat vacuoles deposition in the liver ([1]; 20 mg/kg/day PO, HFD mice): reduction
liver TG content ([1]; 20 mg/kg/day PO, HFD mice): Significant reductions
liver cholesterol ([1]; 20 mg/kg/day PO, HFD mice): not
IC50 (CYP3A4): > 50 µM
IC50 (CYP 2D6; human liver microsomes, read-out: IC50 (μM) CYP 2D6): > 50 µM
IC50 (CYP2C19; human liver microsomes, read-out: IC50 (μM) CYP 2C19): > 50 µM
inhibitor grade, CYP2C9 (CYP2C9; human liver microsomes): weak-moderate inhibitor
IC50 (CYP2C9; human liver microsomes, read-out: IC50 (μM) CYP 2C9): 8.52 µM
IC50 (CYP 1A2; human liver microsomes, isozyme order of b227, read-out: IC50 (μM) CYP 1A2): > 50 µM
Papp at 2.5 h, 2 μM (P-gp (MDR1, ABCB1); 2 μM, A to B, 2.5 hours): < 0.02 ×10⁻⁶ cm/s
efflux ratio at 2.5 h, 2 μM (P-gp (MDR1, ABCB1); efflux ratio, without P-gp inhibitor, read-out: MDR1 B:A/A:B): > 3.62
P-gp substrate (MDR1-MDCKII cells): P-gp substrates and Yes
Rank Papp (MDR1-MDCKII cells): Low
potential for cardiotoxicity (QT prolongation) (hERG potassium channels): low
IC50 (hERG potassium channels): > 30 µM
